Patent publication US11584714B2 (priority 2018, dated 2023)
Structures can show the parent of a compound that is named as a salt. Where two headings read alike, the source gives them in different places.

What was measured:
Type in all cases: biochemical
MASP-2 = MASP-2 (Homo sapiens (Human), UniProt O00187); test: MASP-2 inhibition (Ki)
Thrombin = Thrombin (Homo sapiens (Human), UniProt P00734); test: Thrombin inhibition (Ki); conditions: for Ki: read-out: Thrombin Ki
MASP-2 (CCP1-CCP2-SP) = MASP-2 (CCP1-CCP2-SP) (Homo sapiens (Human), UniProt O00187); test: biochemical
MASP-2 (CCP1-CCP2-SP), sequence (O00187 445-686): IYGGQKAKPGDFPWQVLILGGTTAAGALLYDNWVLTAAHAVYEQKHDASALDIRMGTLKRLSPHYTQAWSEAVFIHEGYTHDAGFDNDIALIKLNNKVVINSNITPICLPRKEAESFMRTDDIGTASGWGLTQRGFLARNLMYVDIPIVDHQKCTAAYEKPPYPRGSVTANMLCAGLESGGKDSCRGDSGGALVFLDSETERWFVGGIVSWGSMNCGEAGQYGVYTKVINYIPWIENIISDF

mMASP-2 = mMASP-2 (Mus musculus (Mouse), UniProt Q91WP0); test: Enzymatic inhibition of mMASP-2
mMASP-2, sequence (Q91WP0 20-685): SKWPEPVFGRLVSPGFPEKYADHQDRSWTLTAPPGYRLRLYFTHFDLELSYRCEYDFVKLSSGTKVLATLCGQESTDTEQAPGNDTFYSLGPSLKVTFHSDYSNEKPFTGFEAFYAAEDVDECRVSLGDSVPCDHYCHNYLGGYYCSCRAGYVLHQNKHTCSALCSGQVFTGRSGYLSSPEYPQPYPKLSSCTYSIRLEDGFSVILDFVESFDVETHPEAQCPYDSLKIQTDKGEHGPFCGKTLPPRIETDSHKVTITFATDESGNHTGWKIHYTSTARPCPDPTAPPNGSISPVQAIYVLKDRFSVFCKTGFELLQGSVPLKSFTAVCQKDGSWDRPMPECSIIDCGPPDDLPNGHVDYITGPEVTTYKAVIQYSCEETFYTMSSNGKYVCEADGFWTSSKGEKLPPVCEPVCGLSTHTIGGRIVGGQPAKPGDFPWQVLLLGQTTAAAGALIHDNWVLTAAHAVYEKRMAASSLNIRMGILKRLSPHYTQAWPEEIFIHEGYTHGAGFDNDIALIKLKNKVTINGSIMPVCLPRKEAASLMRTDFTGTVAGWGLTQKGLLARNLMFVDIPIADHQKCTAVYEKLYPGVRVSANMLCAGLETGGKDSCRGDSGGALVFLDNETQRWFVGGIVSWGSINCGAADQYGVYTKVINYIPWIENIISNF

human α-thrombin = human α-thrombin (Homo sapiens (Human), UniProt P00734); test: Enzymatic assay for thrombin (Boc-VPR-AMC substrate)
Lectin Pathway = test: Lectin pathway activation assay in human serum (mannan-coated ELISA, C3c detection); conditions: 1% human serum
[1] = selectivity for MASP-2 inhibition versus thrombin

MASP-2, sequence (O00187 16-686): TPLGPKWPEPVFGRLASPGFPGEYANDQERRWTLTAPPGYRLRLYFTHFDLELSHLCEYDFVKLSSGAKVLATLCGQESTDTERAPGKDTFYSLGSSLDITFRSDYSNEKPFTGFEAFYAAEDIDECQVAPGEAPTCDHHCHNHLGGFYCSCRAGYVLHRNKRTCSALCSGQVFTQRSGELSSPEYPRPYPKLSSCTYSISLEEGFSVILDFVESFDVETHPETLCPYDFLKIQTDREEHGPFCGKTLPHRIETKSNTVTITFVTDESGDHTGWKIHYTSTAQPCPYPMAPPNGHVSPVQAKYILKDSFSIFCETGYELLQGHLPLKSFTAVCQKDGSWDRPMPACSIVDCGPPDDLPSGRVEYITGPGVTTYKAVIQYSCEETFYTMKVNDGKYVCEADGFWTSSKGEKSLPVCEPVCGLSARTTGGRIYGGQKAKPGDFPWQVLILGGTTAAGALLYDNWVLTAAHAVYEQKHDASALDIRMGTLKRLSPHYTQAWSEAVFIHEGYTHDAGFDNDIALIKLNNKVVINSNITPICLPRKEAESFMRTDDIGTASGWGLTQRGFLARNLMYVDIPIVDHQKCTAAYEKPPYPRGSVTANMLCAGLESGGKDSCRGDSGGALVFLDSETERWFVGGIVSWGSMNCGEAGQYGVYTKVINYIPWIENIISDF

| Compound | Ki (MASP-2) [nM] | Ki (MASP-2 (CCP1-CCP2-SP); read-out: MASP-2 Ki) [nM] | MASP-2 vs. thrombin selectivity (MASP-2 (CCP1-CCP2-SP); [1]) | Ki (mMASP-2; read-out: mMASP-2 Ki) [nM] | Ki (human α-thrombin; read-out: Thrombin Ki) [µM] | IC50 (Lectin Pathway) [nM] | Ki (human α-thrombin; Thrombin Ki (μM)) [µM] | also measured |
| --- | --- | --- | --- | --- | --- | --- | --- | --- |
| COc1ccc(/C=C2\N=C(c3ccccc3OC)OC2=O)cc1OC [compound 3] | 25000 to 100000 | – | – | – | – | – | – | Ki (Thrombin): < 10000 nM |
| Cc1c(C(=O)Nc2ccccc2C(=O)O)cccc1[N+](=O)[O-] [compound 9] | < 10000 | – | – | – | – | – | – | Ki (Thrombin): < 10000 nM |
| CN(C(=O)c1cc2ccccc2cc1C(=O)C(c1cccc2ccccc12)P(=O)(O)O)C1CCN(C(=O)c2ccccc2)CC1 (stereo not drawn) [compound 51] | 10000 to 25000 | – | – | – | – | – | – | Thrombin Ki (μM) (Thrombin): No activity |
| O=C1OC(/C=C/c2ccccc2)=NC/1=C\c1ccco1 [compound 6] | < 10000 | – | – | – | – | – | – | Ki (Thrombin): 25000 to 100000 nM |
| O=C(Oc1ccc([N+](=O)[O-])cc1)c1ccc(Br)o1 [compound 20] | < 10000 | – | – | – | – | – | – | Thrombin Ki (μM) (Thrombin): No Activity |
| CCCc1nnc(NC(CC)OC(=O)c2cc(C)nc3ccccc23)s1 (stereo not drawn) [compound 23] | < 10000 | – | – | – | – | – | – | Thrombin Ki (μM) (Thrombin): No Activity |
| O=C(O)/C=C/C=C/c1ccco1 [compound 38] | 10000 to 25000 | – | – | – | – | – | – | – |
| O=C1c2ccccc2C(=O)N1Oc1ccc(C(F)(F)F)cc1[N+](=O)[O-] [compound 35] | 25000 to 100000 | – | – | – | – | – | – | – |
| COc1ccccc1C1=N/C(=C\c2cccs2)C(=O)O1 [compound 5] | 10000 to 25000 | – | – | – | – | – | – | – |
| C[C@H](NC(=O)[C@H]1C[C@H](Cc2ccccc2)CN1)C(=O)NCc1cnc2[nH]cc(Cl)c2c1 [compound 1334, (2R,4S)-4-Benzyl-N-((S)-1-(((3-chloro-1H-pyrrolo[2,3-b]pyridin-5-yl)methyl)amino)-1-oxopropan-2-yl)pyrrolidine-2-carboxamide Di-hydrochloride] | – | < 500 | −− (<1.0-fold) | < 500 | < 0.5 | – | – | selectivity for MASP-2 over thrombin (MASP-2; MASP-2 vs thrombin): MASP-2 selective |
| Cc1nc(N)ccc1CNC(=O)[C@H](C)NC(=O)[C@H]1C[C@H](Oc2ccccc2)CN1 [compound 1446, (2R,4S)—N—((S)-1-(((6-Amino-2-methylpyridin-3-yl)methyl)amino)-1-oxopropan-2-yl)-4-phenoxypyrrolidine-2-carboxamide] | – | < 500 | **** (≥100-fold) | 500 to 2500 | > 25 | 5000 to 50000 | – | – |
| Cc1nc(N)ccc1CNC(=O)[C@H](C)NC(=O)[C@H]1C[C@H](Cc2ccc(C#N)cc2)CN1 [compound 1428, (2R,4S)—N—((S)-1-(((6-Amino-2-methylpyridin-3-yl)methyl)amino)-1-oxopropan-2-yl)-4-(4-cyanobenzyl)pyrrolidine-2-carboxamide Di-trifluoroacetate salt] | – | < 500 | **** (≥100-fold) | 500 to 2500 | – | 500 to 5000 | 10 to 25 | – |
| Cc1nc(N)ccc1CNC(=O)[C@H](C)NC(=O)[C@@H](CCc1ccccc1)NCc1ccc(Cl)cc1 [compound 1375, (R)—N—((S)-1-(((6-Amino-2-methylpyridin-3-yl)methyl)amino)-1-oxopropan-2-yl)-2-((4-chlorobenzyl)amino)-4-phenylbutanamide] | – | – | ** (≥5.0 to <25-fold) | 10000 to 25000 | – | 500 to 5000 | 10 to 25 | Ki (MASP-2 (CCP1-CCP2-SP)): 500 to 2500 nM |
| Cc1[nH]c(C(=O)N[C@@H](C)C(=O)NCc2ccc(C(=N)N)cc2)cc1-c1ccccc1 [compound 1239, (S)—N-(1-((4-Carbamimidoylbenzyl)amino)-1-oxopropan-2-yl)-5-methyl-4-phenyl-1H-pyrrole-2-carboxamide] | – | < 500 | ** (≥5.0 to <25-fold) | < 500 | – | 500 to 5000 | 2.5 to 10 | – |
| Cc1nc(N)ccc1CNC(=O)[C@H](C)NC(=O)[C@H]1C[C@H](Cc2ccccc2Br)CN1 [compound 1372, (2R,4S)—N—((S)-1-(((6-Amino-2-methylpyridin-3-yl)methyl)amino)-1-oxopropan-2-yl)-4-(2-bromobenzyl)pyrrolidine-2-carboxamide Di-trifluoroacetate salt] | – | < 500 | ** (≥5.0 to <25-fold) | < 500 | < 0.5 | 50 to 500 | – | – |
| Cc1nc(N)ccc1CNC(=O)[C@H](C)NC(=O)[C@H]1C[C@H](Cc2ccc(Cl)s2)CN1 [compound 1454, (2R,4R)—N—((S)-1-(((6-Amino-2-methylpyridin-3-yl)methyl)amino)-1-oxopropan-2-yl)-4-((5-chlorothiophen-2-yl)methyl)pyrrolidine-2-carboxamide Dihydrochloride] | – | < 500 | *** (≥25 to <100-fold) | < 500 | – | 500 to 5000 | 0.5 to 2.5 | – |
| Cc1nc(N)ccc1CNC(=O)[C@H](C)NC(=O)[C@H]1C[C@H](Cc2ccc(C#N)c3ccccc23)CN1 [compound 1431, (2R,4S)—N—((S)-1-(((6-Amino-2-methylpyridin-3-yl)methyl)amino)-1-oxopropan-2-yl)-4-((4-cyanonaphthalen-1-yl)methyl)pyrrolidine-2-carboxamide Dihydrochloride] | – | < 500 | **** (≥100-fold) | < 500 | – | 50 to 500 | 10 to 25 | – |
| Cc1nc(N)ccc1CNC(=O)Cn1c(C)cnc(NCCc2ccccc2)c1=O [compound 1488] | – | < 500 | −− (<1.0-fold) | 2500 to 10000 | < 0.5 | 500 to 5000 | – | – |
| C[C@H](NC(=O)[C@H]1C[C@@H](c2ccccc2)CCN1)C(=O)NCc1cnc2[nH]cc(Cl)c2c1 [compound 1433, (2R,4S)—N—((S)-1-(((3-Chloro-1H-pyrrolo[2,3-b]pyridin-5-yl)methyl)amino)-1-oxopropan-2-yl)-4-phenylpiperidine-2-carboxamide] | – | < 500 | **** (≥100-fold) | < 500 | – | 50 to 500 | 0.5 to 2.5 | – |
| Cc1c(Cl)cccc1CC[C@@H](N)C(=O)N[C@@H](C)C(=O)NCc1ccc(C(=N)N)cc1 [compound 1103] | – | < 500 | – | < 500 | < 0.5 | 50 to 500 | – | MASP-2 vs. thrombin selectivity (MASP-2 (CCP1-CCP2-SP); MASP-2 inhibition versus thrombin): ** (5.0 to 25-fold) |
| Cc1nc(N)ccc1CNC(=O)[C@H](C)NC(=O)[C@H]1Cc2c([nH]c3ccccc23)CN1 [compound 1389, (R)—N—((S)-1-(((6-Amino-2-methylpyridin-3-yl)methyl)amino)-1-oxopropan-2-yl)-2,3,4,9-tetrahydro-1H-pyrido[3,4-b]indole-3-carboxamide Hydrochloride] | – | < 500 | **** (≥100-fold) | 2500 to 10000 | > 25 | 500 to 5000 | – | – |
| Cc1nc(N)ccc1CNC(=O)[C@H](C)NC(=O)[C@H]1C[C@@H](c2ccccc2)CCN1 [compound 1253, (2R,4S)—N—((S)-1-(((6-Amino-2-methylpyridin-3-yl)methyl)amino)-1-oxopropan-2-yl)-4-phenylpiperidine-2-carboxamide] | – | < 500 | – | – | > 25 | 50 to 500 | – | Ki (mMASP-2): 500 to 2500 nM |
| Cc1nc(N)ccc1CNC(=O)[C@H](C)NC(=O)[C@H]1C[C@H](Cc2cc(Cl)cc3ccccc23)CN1 [compound 1432, (2R,4S)—N—((S)-1-(((6-Amino-2-methylpyridin-3-yl)methyl)amino)-1-oxopropan-2-yl)-4-((3-chloronaphthalen-1-yl)methyl)pyrrolidine-2-carboxamide Dihydrochloride] | – | < 500 | **** (≥100-fold) | < 500 | – | 500 to 5000 | 10 to 25 | – |
